From PMC10222323, “Novel Biotinylated Cu(II)-Phenanthroline Complexes: 2D and 3D Cytotoxic Activity and Mechanistic Insight” (Molecules, 2023) come the findings set out here.

SMILES strings stand for the structures.

Test [1] concerns genomic DNA of MDA-MB-231 cells. The following applies: 3 h; for cells with lesioned genomic DNA (comets): 4 μM, fraction of treated cells. The procedure:
As proof of the principle of their DNA-targeting ability, the alkaline single-cell gel electrophoresis (Comet assay, Figure 4) assay was performed to evaluate cellular genomic DNA lesions induced by tested complexes. […] MDA-MDB-231 cells were exposed for 3 h to 4 μM of tested compounds or 200 µM of the reference drug chlorambucil. Figure 4A depicts the relative percentage of comets and the number of cells forming a comet relative to the total number of detected cells per each condition in two randomly captured fields from two independent experiments. […] On the other hand, some reports highlighted protein disulphide isomerase (PDI) as an emerging target for copper complexes. On this basis, we also evaluated the ability of our complexes to act as PDI inhibitors. The enzyme was treated with 25 µM of complexes 2 and 4, and the ability to hamper its activity was assessed by a biochemical colourimetric method (Proteostat kit).
About 3 × 10^4 MDA-MB-231 cells were seeded in 25 cm^2 flasks in a growth medium. After overnight incubation, cells were treated for 3 h with […] of tested compounds and processed as previously described. Pictures were captured with a Zeiss LSM-800 confocal microscope (Zeiss, Oberkochen, Germany). All photos were analyzed by the Zen 2.3 system (Zeiss, Oberkochen, Germany).
Figure 4 Mechanistic studies. (A) Comet assay: MDA-MDB-231 cells were treated for 3 h with 4 μM of tested compounds 2 and 4 or 200 µM of the reference drug chlorambucil. The relative percentage of comets (number of cells forming a comet/total number of cells) was detected in two randomly captured fields from two independent experiments. (B) PDI inhibition induced by tested compounds was measured by Proteostat PDI assay kit. The PDI inhibitor Bacitracine (0.5 mM) was used as a positive control. Error bars indicate S.D. ** p < 0.01 compared with control.

The subject of test [2] is MDA-MB-231 cells. The following applies: 24 h, IC50 concentrations. The procedure: Transmission electron microscopy (TEM) studies were also performed to assess the eventual modification of cellular/subcellular morphological features induced by the tested complexes. Figure 5 reports the TEM images of the breast carcinoma cells MDA-MB-231 treated for 24 h with IC50 concentrations of cisplatin or compounds 2 and 4.
About 10^6 MDA-MB-231 cells were seeded in 24-well plates and, following overnight incubation, were treated with the tested compounds for 24 h. Then, cells were processed as previously described. Pictures were captured with a Hitachi H-600 electron microscope (Hitachi, Tokyo, Japan) operating at 75 kV. All photos were analyzed by using Corel Draw 11.
Figure 5 TEM analysis of MDA-MB-231 human breast cancer cells: (a,b) control cells; (c–e) cells treated for 24 h with IC50 concentrations of 2; (f–h) cells treated for 24 h with IC50 concentrations of 4.

Test [3] has as its system MDA-MB-231 (breast) cancer cells. In words: MTT cytotoxicity test, 72 h, MDA-MB-231. The test is classed as cell-based, human. The following applies: mean ± S.D. The procedure:
(§1) The in vitro anticancer potential of the newly developed complexes and of the ligands has been tested on six different cancer cell lines including PSN-1 (pancreatic), HCT-15 (colorectal with low sensitivity for cisplatin), 2008 (ovarian), A431 (cervical), MDA-MB-231 (breast), and U1285 (lung) cancer cells. For comparison purposes, cisplatin efficacy was assessed under the same experimental conditions.
Tested compounds were dissolved in DMSO and added to the cell-growth medium to a final solvent concentration of 0.5%, which is well reported to not have cytotoxic effects on cell viability. Cisplatin (Sigma Chemical Co., St. Louis, MO, USA) was dissolved in a physiologic solution (0.9% sodium chloride).
Human colon (HCT-15), pancreatic (PSN-1), and breast (MDA-MB-231) carcinoma-cell lines were obtained from the American Type Culture Collection (ATCC, Rockville, MD). Human cervical carcinoma (A431) cells were kindly provided by Prof. F. Zunino (Division of Experimental Oncology B, Istituto Nazionale dei Tumori, Milan). Human ovarian carcinoma (2008) cells and their cisplatin-resistant counterpart (C13*) were kindly provided by Prof. G. Marverti (Dipartimento di Scienze Biomediche, Università di Modena University, Italy). Cell lines were cultured in RPMI-1640 or DMEM medium (Euroclone) added with 10% fetal calf serum (Euroclone, Milan, Italy), antibiotics (50 units per mL penicillin, and 50 μg mL^−1 streptomycin), and 2 mM L-glutamine.
(§2) The growth inhibitory effect toward the tumour cell lines was evaluated by the MTT test as previously described.

For test [4], the system named is MDA-MB-231 cells. The following applies: 24 h, 2 and 3 μM. The procedure: The ability to enter cancer cells is a very important factor to determine the biological activity of metal-based compounds. Consequently, with the aim of correlating the antiproliferative activity elicited by all the newly developed complexes and their accumulation profiles into cancer cells, the Cu content was evaluated in the SMVT overexpressing MDA-MB-231 cells. Uptake profiles were determined by treating cancer cells for 24 h with two concentrations (2 and 3 μM) of tested complexes.
MDA-MB-231 cells (2.5 × 10^6) were seeded in 75 cm^2 flasks in a growth medium (20 mL). Following 24 h, cells were treated for 24 h with tested complexes and samples processed as previously described.
Figure 2 Cellular uptake of complexes 1–4 in drug-treated MDA-MB-231 human breast cancer cells. Cells were incubated for 24 h with […] of tested complexes. The amount of cellular Cu was estimated by GF-AAS. Error bars are S.D.

Test [5] relates to MDA-MB-231 cells. The following applies: 3 μM, 24 and 48 h.
For test [6], the system named is six different cancer cell lines. In words: MTT cytotoxicity, average over the cancer cell line panel. The following applies: 2D assays, average over the cancer cell lines of Table 1. The test is classed as cell-based, human. The procedure:
as §1
Due to note, all the complexes were very effective in the MDA-MB-231 cell line, which overexpress the SMVT (sodium-dependent multivitamin transporter) receptor, which is well known to be involved in the intracellular translocation of biotin [24].
as §2

Regarding `O=C(CCCC[C@@H]1SC[C@@H]2NC(=O)N[C@@H]21)NN=C1C(=O)c2ccc[n+]3c2-c2c1ccc[n+]2[Cu-2]3([Cl])[Cl]` [Complex 2, [Cu(phendione-biotin)Cl2]], the “cells with lesioned genomic DNA (comets)” value in test [1] is “at least one fourth”. The “cell morphology by TEM” value with MDA-MB-231 cells [2] is “substantial enhancement of the mitochondrial dimensions (swelling) and a partial disruption of the cristae structures”. In test [3], this compound returned an IC50 of 1400 ± 100 nM.

For `O=C(CCCC[C@@H]1SC[C@@H]2NC(=O)N[C@@H]21)NN=C1C(=O)c2ccc[n+]3c2-c2c1ccc[n+]2[Cu-2]31[n+]2cccc3ccc4ccc[n+]1c4c32.O=[N+]([O-])[O-].O=[N+]([O-])[O-]` [Complex 4, [Cu(phen)(phendione-biotin)](NO3)2], in the test with MDA-MB-231 cells [4], the “Cu intracellular content (uptake)” value is reported as “most internalised into cancer cells”. Further, the “apoptosis induction (Hoechst staining)” value in the test on MDA-MB-231 cells [5] is “morphological features typical of cells undergoing apoptosis”. The IC50 in test [6] is 800 nM; in test [3], 600 ± 100 nM. Besides, the “DNA damaging efficacy compared with chlorambucil” value in test [1] (4 μM compound vs 200 µM chlorambucil) was “much higher than that induced by the reference compound chlorambucil”. Besides, in test [1], the “cells with lesioned genomic DNA (comets)” value is listed as “one third”. The “cell morphology by TEM” value with MDA-MB-231 cells [2] was “substantial enhancement of the mitochondrial dimensions (swelling) and a partial disruption of the cristae structures”.
